Measurements as given in article PMC6465675, “Design, Synthesis, Antiviral Evaluation, and SAR Studies of New 1-(Phenylsulfonyl)-1H-Pyrazol−4-yl-Methylaniline Derivatives” (Frontiers in Chemistry, 2019).

Experiments:
[1] = tested on: DENV-2
[2] = tested on: WNV
[3] = in vitro; details: Mesocricetus auratus (hamster)
[4] = tested on: DENV-2; test: microbe, parasite or virus in culture; details: Dengue virus, DENV2, BHK, read-out: DENV-2 EC50
[5] = tested on: WNV; test: microbe, parasite or virus in culture; details: West Nile virus, BHK, read-out: WNV EC50
[6] = tested on: CVB-5; test: microbe, parasite or virus in culture; format: cell-based, Coxsackievirus B5; details: Enterovirus B, Vero 76, read-out: CVB-5 EC50
[7] = tested on: Sb-1; test: microbe, parasite or virus in culture; format: cell-based, Poliovirus type-1, Sabin strain; details: Enterovirus C, Vero 76, read-out: Sb-1 EC50
[8] = tested on: VV; test: microbe, parasite or virus in culture; format: cell-based; details: Orthopoxvirus vaccinia, Vero 76, read-out: VV EC50
[9] = tested on: HSV-1; test: microbe, parasite or virus in culture; format: cell-based, human herpesvirus 1; details: Human alphaherpesvirus 1, Vero 76, read-out: HSV-1 EC50
[10] = tested on: VSV; test: microbe, parasite or virus in culture; format: cell-based; details: Vesicular stomatitis virus, Vero 76, read-out: VSV EC50
[11] = tested on: YFV
[12] = in vitro; details: Bos taurus (cattle)
[13] = in vitro; details: human
[14] = tested on: YFV; test: microbe, parasite or virus in culture; details: Yellow fever virus, BHK, read-out: YFV EC50
[15] = tested on: RSV
[16] = in vitro; details: Cercopithecus aethiops (monkey), Vero76 CC50
[17] = tested on: RSV; test: microbe, parasite or virus in culture; details: human respiratory syncytial virus, Vero 76, read-out: RSV EC50
[18] = tested on: BVDV
[19] = tested on: BVDV; test: microbe, parasite or virus in culture; details: Bovine viral diarrhea virus isolates and strains, MDBK, read-out: BVDV EC50

| SMILES | SI CC50/EC50 (DENV-2) [1] | SI CC50/EC50 (WNV) [2] | CC50 [3] [µM] | EC50 [4] [µM] | EC50 [5] [µM] | EC50 [6] [µM] | EC50 [7] [µM] | EC50 [8] [µM] | EC50 [9] [µM] | EC50 [10] [µM] | melting point [°C] | SI CC50/EC50 (YFV) [11] | CC50 [12] [µM] | CC50 [13] [µM] | EC50 [14] [µM] | SI CC50/EC50 (RSV) [15] | CC50 [16] [µM] | EC50 [17] [µM] | SI CC50/EC50 (BVDV) [18] | EC50 [19] [µM] |
| --- | --- | --- | --- | --- | --- | --- | --- | --- | --- | --- | --- | --- | --- | --- | --- | --- | --- | --- | --- | --- |
| Brc1ccc(NCc2cn(-c3ccccc3)nc2-c2ccc(Br)cc2)cc1 [1g] | >4.3 | >1.25 | > 100 | 23 ± 6 | 80 ± 8.5 |  |  |  |  |  |  |  |  |  |  |  |  |  |  |  |
| Clc1ccc(NCc2cn(-c3ccccc3)nc2-c2ccc(Cl)cc2)cc1 [1i] | 5.0 | 1.3 | 73 ± 1 | 14.5 ± 3.5 | 57.5 ± 0.5 |  |  |  |  |  |  |  |  |  |  |  |  |  |  |  |
| Cc1ccc(NCc2cn(-c3ccccc3)nc2-c2ccc(Cl)cc2)cc1 [1n] | >9.0 | >2.6 | > 100 | 11.1 ± 1.6 | 39 ± 1 |  |  |  |  |  |  |  |  |  |  |  |  |  |  |  |
| Cc1ccc(NCc2cn(-c3ccccc3)nc2-c2ccc(C(F)(F)F)cc2)cc1 [1o] | 6.2 | 1.5 | 88 ± 0.5 | 14.3 ± 0.7 | 59 ± 1.1 |  |  |  |  |  |  |  |  |  |  |  |  |  |  |  |
| O=S(=O)(c1ccccc1)n1cc(CNc2ccc(Cl)cc2)c(-c2ccccc2)n1 [7b, 4-Chloro-N-[(3-phenyl-1-(phenylsulphonyl)-1H-pyrazol-4-yl)methyl]aniline] |  |  | > 100 |  |  | 20 ± 5 | > 80 | > 80 | > 80 | > 80 | 136 to 137 | >12.3 | > 100 | > 100 | 8.1 ± 1.3 |  |  |  |  |  |
| O=S(=O)(c1ccccc1)n1cc(CNc2ccc(Cl)cc2)c(-c2ccc(Br)cc2)n1 [7f, 4-Chloro-N-[(3-(4-bromophenyl)-1-(phenysulfonyl)-1H-pyrazol-4-yl)methyl]aniline] |  |  | > 100 |  |  | > 90 | > 90 | > 90 | > 90 | > 90 | 137 to 138 | >25.0 | > 100 | > 100 | 4 ± 0.7 | 5.9 | 90 ± 2 | 15.3 ± 2.5 |  |  |
| O=S(=O)(c1ccccc1)n1cc(CNc2ccc(Br)cc2)c(-c2ccc(Br)cc2)n1 [7g, 4-Bromo-N-[(3-(4-bromophenyl)-1-(phenylsulfonyl)-1H-pyrazol-4-yl)methyl]aniline] |  |  | > 100 |  |  | > 90 | > 90 | > 90 | > 90 | > 90 | 150 to 151 | >16.1 | > 100 | > 100 | 6.2 ± 0.5 | 5.7 | 90 ± 1 | 15.8 ± 2 |  |  |
| Cc1ccc(NCc2cn(S(=O)(=O)c3ccccc3)nc2-c2ccc(Br)cc2)cc1 [7h, 4-Methyl-N-[(3-(4-bromophenyl)-1-(phenylsulfonyl)-1H-pyrazol-4-yl)methyl]aniline] |  |  | > 100 |  |  | > 93 | > 93 | > 93 | > 93 | > 93 | 112 | >20.4 | > 100 | > 100 | 4.9 ± 0.9 | 7.4 | 93 ± 0.5 | 12.5 ± 2.5 |  |  |
| O=S(=O)(c1ccccc1)n1cc(CNc2ccc(Cl)cc2)c(-c2ccc(Cl)cc2)n1 [7j, 4-Cloro-N-[(3-(4-chlorophenyl)-1-(phenylsulfonyl)-1H-pyrazol-4-yl)methyl]aniline] |  |  | > 100 |  |  |  |  |  |  |  | 142 to 143 | >22.7 | > 100 | > 100 | 4.4 ± 0.4 | >11.8 | > 100 | 8.5 ± 0.5 | >2.3 | 43.3 ± 1.1 |
| COc1ccc(S(=O)(=O)n2cc(CNc3ccc(Cl)cc3)c(-c3ccc(Br)cc3)n2)cc1 [8b, 4-Chloro-N-[(3-(4-bromophenyl)-1-((4-methoxphenyl)sulfonyl)-1H-pyrazol-4-yl)methyl]aniline] |  |  | > 100 |  |  |  |  |  |  |  | 153 to 154 | >4.6 | > 100 | > 100 | 21.6 ± 0.8 |  | > 100 |  | >5.0 | 20 ± 1.4 |
| COc1ccc(S(=O)(=O)n2cc(CNc3ccc(Br)cc3)c(-c3ccc(Br)cc3)n2)cc1 [8c, 4-Bromo-N-[(3-(4-bromophenyl)-1-((4-methoxphenyl)sulfonyl)-1H-pyrazol-4-yl)methyl]aniline] |  |  | > 100 |  |  |  |  |  |  |  | 162 to 164 |  | > 100 | > 100 | > 100 |  | > 100 |  | >4.4 | 23 ± 3.5 |
| COc1ccc(S(=O)(=O)n2cc(CNc3ccc(Cl)cc3)c(-c3ccc(Cl)cc3)n2)cc1 [8f, 4-Chloro-N-[(3-(4-chlorophenyl)-1-((4-methoxyphenyl)sulfonyl)-1H-pyrazol-4-yl)methyl]aniline] |  |  | > 100 |  |  |  |  |  |  |  | 158 to 159 | >6.25 | > 100 | > 100 | 16 ± 0.7 |  | > 100 |  | >12.7 | 7.9 ± 0.8 |
| COc1ccc(S(=O)(=O)n2cc(CNc3ccc(Br)cc3)c(-c3ccc(Cl)cc3)n2)cc1 [8g, 4-Bromo-N-[(3-(4-chlorophenyl)-1-((4-methoxyphenyl)sulfonyl)-1H-pyrazol-4-yl)methyl]aniline] |  |  | > 100 |  |  |  |  |  |  |  | 169 to 171 | >5.4 | > 100 | > 100 | 18.6 ± 0.8 |  | > 100 |  | >8.1 | 12.4 ± 0.8 |
| COc1ccc(S(=O)(=O)n2cc(CNc3ccc(Br)cc3)c(-c3ccc(C)cc3)n2)cc1 [8k] |  |  | > 100 |  |  |  |  |  |  |  | 151 to 153 |  | > 100 | > 100 |  |  | > 100 |  | >5.1 | 19.5 ± 1.4 |
| Nc1nc2c(ncn2COCCO)c(=O)[nH]1 [ACG, Acyclovir, reference compound] |  |  |  |  |  |  |  |  | 2.9 ± 0.1 |  |  |  |  |  |  |  | > 100 |  |  |  |
| COc1c(C)c2c(c(O)c1C/C=C(\C)CCC(=O)O)C(=O)OC2 [M 5255, Mycophenolic acid, reference compound] |  |  |  |  |  |  |  | 2 ± 0.1 |  |  |  |  |  |  |  |  | 20 ± 0.3 |  |  |  |
| Cc1cc(CCCOc2c(C)cc(-c3noc(C(F)(F)F)n3)cc2C)on1 [Pleconaril, reference compound] |  |  |  |  |  | 0.0025 ± 0.0005 | 2 ± 0.1 |  |  |  |  |  |  |  |  |  | 70 ± 1 |  |  |  |
| NC(=O)c1ncn([C@@H]2O[C@H](CO)[C@@H](O)[C@H]2O)n1 [Ribavirin, reference compound] |  |  |  |  |  |  |  |  |  |  |  |  | 55 ± 7 |  |  | >2.7 | > 100 | 37.5 ± 2.5 | 3.4 | 16 ± 2 |
